Source: PMC9318729 (Toxins, 2022)
Where two headings read alike, the source gives them in different places. No end group written: not given here.

How the values were obtained:
[1] = tested on: A549 cells; assay: MTT cell viability assay; format: cell-based, human; details: 24 h treatment
Protocol: (§1) MTT assay was performed to analyze cellular viability as previously reported by us. Briefly, A549, H3122, PC-9, H460 and MRC-5 cells (1 × 10^4 cells/well) were grown in 96-well plates and exposed to the different concentrations of Smp24 (1.25–20 μM) with 24 h. […] After incubation, 10 µL MTT (5 mg/mL) was added before incubation for 4 h at 37 °C in the dark. Subsequently, the cell medium was discarded, and 200 µL DMSO was applied into each well before the absorbance value at 490 nm was determined via the microplate reader (Tecan Company, Männedorf, Switzerland). Cell proliferation was further detected by the BeyoClick™ EdU cell proliferation kit with Alexa Fluor 488 (Beyotime Institute of Biotechnology, Shanghai, China) according to the protocol of manufacturer. In brief, A549 cells (2 × 10^5 cells/well) were grown in 6-well plates and exposed to different concentrations of Smp24 (0, 1.25, 2.5 and 5 μM) for 24 h. Then, the cells were incubated with EdU for 2 h and stained with Alexa Fluor 488 for 30 min in the dark before cell fluorescence intensity was measured by flow cytometry (Becton Dickinson Company, Franklin Lakes, NJ, USA). The experiments had been performed in triplicate.

[2] = tested on: H3122 cells; assay: MTT cell viability assay; format: cell-based, human; details: 24 h treatment
Protocol: as §1

[3] = tested on: H460 cells; assay: MTT cell viability assay; format: cell-based, human; details: 24 h treatment
Protocol: as §1

[4] = tested on: PC-9 cells; assay: MTT cell viability assay; format: cell-based, human; details: 24 h treatment
Protocol: as §1

[5] = tested on: MRC-5 cells; assay: MTT cell viability assay, normal cells; format: cell-based; details: 24 h treatment, mean ± SEM (n = 3), read-out: IC50 against MRC-5 normal cells
Protocol: as §1

[6] = tested on: A549 xenograft; assay: A549 xenograft mice model, in vivo antitumor experiment; set-up: species or system BALB/c nude mice; details: 2 mg/kg every three days for 18 days, n = 5
Protocol: A total of 10 BALB/c nude mice of both sexes (18–20 g, 6 weeks) were acquired from the Laboratory Animal Center of Southern Medical University and were raised in a specific pathogen-free mini-barrier system of the central animal facility of Southern Medical University under controlled conditions (60% humidity, 21 ± 2 °C room temperature, and 12 h light-dark cycle). The experimental protocols (ethical approval number: L2019226 on 11 November 2019) involving animals were approved by the Animal Ethics Committee of Southern Medical University and were implemented in the light of the international regulations for animal research. The animals were placed in an induction chamber, and anesthesia was induced with 5% isoflurane before sacrificed by cervical dislocation.
First, 5 × 10^6 A549 cells with viability over 90% were inoculated subcutaneously into the right flank per mouse. Tumor growth was examined daily by palpation and the diameter was measured with calipers in two planes. Tumor volumes were counted with the following formula: volume (mm^3) = (smallest diameter)^2 × (largest diameter)/2. Then, the mice were randomized into two groups (n = 5 mice/group) for physiological saline and Smp24 treatment. […] The body weight of mice and tumor volumes were recorded daily. […]

[7] = Acute toxicity analysis; format: in vivo, mice; details: 5 and 10 mg/kg intraperitoneal, 3 animals per group
Protocol: To detect the acute toxicity of Smp24 in vivo, the mice were weighed and randomly divided into three groups with 3 animals each, and Smp24 (5 mg/kg and 10 mg/kg) and saline were intraperitoneally administered into mice of different groups. At 48 h after injection, serum and organ tissues from mice were collected for blood biochemical detection and organ weight measurement, respectively.

[8] = tested on: A549 cells; assay: Effect of pathway inhibitors on Smp24-induced cytotoxicity (MTT and LDH release); format: cell-based, human; details: inhibitor pre-incubated 30 min (40 μM Necrostatin-1, 1 μM Cyclosporine A), then 5 μM Smp24 for 12 h
Protocol: as §1, with “Briefly, A549, H3122, PC-9, H460 and MRC-5 cells (1 × 10^4 cells/well) were grown in 96-well plates and exposed to the different concentrations of Smp24 (1.25–20 μM) with 24 h.” left out
The LDH release assay was carried out with a commercial kit (Beyotime Institute of Biotechnology, Shanghai, China) following the manufacturer’s manual. […] Thereafter, a microplate reader (Tecan Company, Männedorf, Switzerland) was used to measure the absorbance value at 490 nm. […]

[9] = tested on: NSCLC tumor; details: subcutaneous injection, cited from earlier work
Protocol: For most peptides, despite the cogent evidence about their antitumor effects in vitro, their clinical applications have met with major obstacles owing to several issues, including their non-specific cellular cytotoxicity and rapid degradation in the blood. In order to further verify the antitumor effects of Smp24 in vivo, a tumor-burdened experiment was carried out. […] Furthermore, it ...

IWSFLIKAATKLLPSLFGGGKKDS [Smp24]
Selectivity index, A549 ([1]; normal cells MRC-5): 3.61
IC50 ([1]; MTT, mean ± SEM (n = 3), read-out: IC50 against A549 cells): ~4.06 µM
Selectivity index, H3122 ([2]; normal cells MRC-5): 3.16
IC50 ([2]; MTT, mean ± SEM (n = 3), read-out: IC50 against H3122 cells): ~4.64 µM
Selectivity index, H460 ([3]; normal cells MRC-5): 2.07
IC50 ([3]; MTT, mean ± SEM (n = 3), read-out: IC50 against H460 cells): ~7.07 µM
Selectivity index, PC-9 ([4]; normal cells MRC-5): 2.32
IC50 ([4]; MTT, mean ± SEM (n = 3), read-out: IC50 against PC-9 cells): ~6.34 µM
IC50 [5]: ~14.7 µM
Weight changes of body and organs (heart, lung, liver, spleen, kidney) [6]: did not affect
Animal death after the first day's injection [7]: no animal death
Heart, lung, liver, spleen and kidney weights ([7]; 48 h after injection): did not change significantly
Plasma AST, ALT, BUN and Cre ([7]; 48 h after injection): did not change significantly

CN1C(=O)C(Cc2c[nH]c3ccccc23)NC1=S (stereo not shown) [Necrostatin-1]
Inhibition of Smp24-induced cytotoxicity and necrosis of A549 [8]: can inhibit

melittin
Suppression of NSCLC tumor growth ([9]; 0.5 mg/kg): 27%
Suppression of NSCLC tumor growth ([9]; 10 mg/kg): 61%
